Laboratory results from article PMC9221442, “Design, Synthesis and Characterization of [G10a]-Temporin SHa Dendrimers as Dual Inhibitors of Cancer and Pathogenic Microbes” (Biomolecules, 2022).
≈ marks a conversion by molar mass, not a printed value. Entries after “also recorded” stand apart in the source; their conditions may differ. Like-named read-outs stand apart in the source and are kept apart here. Where a SMILES comes first, the peptide text is derived from it.

Columns and labels:
[1] = Stability study at different temperatures (absorbance spectrum); details: room temperature, 35 °C, 40 °C, 50 °C and 60 °C
Procedure: (§1) The stability of dendrimers at different pH values and temperatures was also determined. For this, a 510 model digital pH meter (Oakton Eutech) with working electrode of glass material and a Ag/AgCl as reference electrode was used for the pH record. Dilute solutions of HCl and NaOH were added to adjust the pH of the solution from 2 to 12. Similarly, stability of monomer [G10a]-SHa and its three dendrimers was checked by heating the peptide dendrimers on different temperature ranges, i.e., room temperature, 35 °C, 40 °C, 50 °C and 60 °C.

[2] = test system: methicillin-resistant Staphylococcus aureus (MRSA); parameters: method as in PMID 35092568; details: cited from earlier work
[3] = Dynamic light scattering (zetasizer); assay type: physicochemical
Procedure: The dendrimeric solutions of peptides were transferred into transparent cuvette with care to remove bubble formation. The sample was then transferred to the cell holder and study was performed at 90° scattering angle at room temperature. The standard viscosity and refractive index were kept constant and kept at 1.0, 1.33 and 80.4 mPa, respectively.

[4] = cited from earlier work
human cancer cells = assay type: cell-based; details: 48 h
Procedure: (§2) The antiproliferative effect of the peptides was determined by using human cells, as previously described. Human cancer cells used in this experiment were ovarian cancer cells A2780 (obtained from ECACC), breast cancer cells MCF-7 (obtained from ATCC), liver cancer cells HepG2 (obtained from ATCC), lung cancer cells A549 (obtained from ATCC), pancreatic cancer cells MiaPaCa (obtained from ATCC), prostate cancer cells PC-3 (obtained from ATCC), and skin cancer cells MNT-1 (generous gift from the National Institute of Health (NIH). Normal human cells used were human lung fibroblasts IMR-90 (obtained from ATCC). All cells were cultured in DMEM which was supplemented with 10% fetal bovine serum (FBS), 1% L-glutamine, and 1% antibiotics (all from Invitrogen) at 37 °C in 5% CO2 incubator. For cytotoxicity assay, cells were maintained in 25 cm^2 flasks. Cells were separated from flasks using trypsin-EDTA solution (from Thermofisher) and counted using Malassez chamber and diluted in culture medium before seeding into 96-well cell-culture plates (Greiner bio-one, Paris, France) at approximately 3000 cells/well. Cells were then treated with increasing concentration of peptides diluted in culture medium (1:2 serial dilution, from 100 µM to 0 µM). After 48 h, medium was aspirated and number of viable cells was colorimetrically determined using resazurin-based assay following manufacturer’s instructions. The fluorescence intensity was measured using microplate reader (Biotek, Santa Clara, CA, USA, Synergy Mx) with an excitation wavelength of 530 nm and an emission wavelength of 590 nm. The fluorescence values were normalized by the controls (untreated cells) and expressed as percent of proliferation. The IC50 values of peptides (i.e., the concentrations causing 50% inhibition of cell proliferation) were determined using GraphPad® Prism 7 software.

[5] = test system: human lung fibroblasts IMR-90; assay type: cell-based; details: 48 h
Procedure: as §2

H. pylori = test system: H. pylori; parameters: method as in PMID 31614561; details: cited from earlier work
liver cancer cells HepG2 = assay type: cell-based, human; details: 48 h
Procedure: as §2

[6] = test system: ovarian cancer cells A2780; assay type: cell-based, human; details: 48 h
Procedure: as §2

[7] = test system: prostate cancer cells PC-3; assay type: cell-based, human; details: 48 h
Procedure: as §2

[8] = test system: breast cancer cells MCF-7; assay type: cell-based, human; details: 48 h
Procedure: as §2

lung cancer cells A549 = assay type: cell-based, human; details: 48 h
Procedure: as §2

[9] = test system: pancreatic cancer cells MiaPaCa; assay type: cell-based, human; details: 48 h
Procedure: as §2

skin cancer cells MNT-1 = assay type: cell-based, human; details: 48 h
Procedure: as §2

[10] = test system: Enterococcus faecalis (DSM 2570); assay type: cell-based
Procedure: (§3) Experiments were performed in triplicate (n = 3).

[11] = test system: Bacillus subtilis (ATCC 6633); assay type: cell-based
Procedure: as §3

[12] = test system: Enterobacter cloacae (DSM 30054); assay type: cell-based
Procedure: as §3

[13] = test system: Enterococcus faecium (DSM 20477); assay type: cell-based; details: DSM 20477
Procedure: as §3

[14] = test system: Staphylococcus aureus (ATCC 6538); assay type: cell-based
Procedure: as §3

[15] = test system: Acinetobacter baumannii (DSM 30007); assay type: cell-based
Procedure: as §3

[16] = test system: Helicobacter pylori (ATCC 43504); assay type: cell-based
Procedure: as §3

[17] = test system: Escherichia coli (ATCC 8739); assay type: cell-based
Procedure: as §3

[18] = test system: Klebsiella pneumoniae (DSM 26371); assay type: cell-based
Procedure: as §3

[19] = test system: Pseudomonas aeruginosa (ATCC 9027); assay type: cell-based
Procedure: as §3

Hemolysis assay = assay type: cell-based, human; details: human
Procedure: (§4) The ability of dendrimers and peptides to cause hemolysis was evaluated using human whole red blood cells. Briefly, fresh human erythrocytes (obtained from Divbio Science Europe, NL) were washed 3 times by centrifugation at 800× g for 5 min with sterile phosphate buffer saline (PBS, pH 7.4). The washed erythrocytes were resuspended in complete culture media (DMEM supplemented with 10% FBS) to a final concentration of 8%. Human erythrocytes were then added into sterile 96-well microplates (150 µL per well) and were exposed to increasing concentrations of peptides or dendrimers. After 1 h incubation at 37 °C, plates were centrifuged at 800× g for 5 min. Then, 100 µL of supernatant were carefully transferred to a new 96-well microplate and absorbance was measured at 450 nm using microplate reader. Triton-X100 at 0.1% (v/v) was used as positive control giving 100% hemolysis. The HC50 values of peptides and dendrimers (i.e., the concentration of compound causing 50% of hemolysis) were calculated using GraphPad® Prism 7 software.

human red blood cells = experiment: Hemolysis assay; assay type: cell-based
Procedure: as §4

[20] = Stability study at different pH; details: pH 2 to pH 14
Procedure: as §1, with “Dilute solutions of HCl and NaOH were added to adjust the pH of the solution from 2 to 12.” left out

CC[C@H](C)[C@H](NC(=O)CNC(=O)[C@H](CO)NC(=O)[C@H](CC(C)C)NC(=O)[C@@H](N)Cc1ccccc1)C(=O)N[C@H](C(=O)NCC(=O)N[C@@H](CCSC)C(=O)N[C@@H](CC(C)C)C(=O)N[C@H](C)C(=O)N[C@@H](CCCCN)C(=O)N[C@@H](CC(C)C)C(=O)N[C@@H](Cc1ccccc1)C(N)=O)C(C)C [[G10a]-SHa, H-Phe^1-Leu^2-Ser^3-Gly^4-Ile^5-Val^6-Gly^7-Met^8-Leu^9-D-Ala^10-Lys^11-Leu^12-Phe^13-NH2] (HELM PEPTIDE1{F.L.S.G.I.V.G.M.L.[dA].K.L.F.[am]}$$$$V2.0)
stability at different temperatures [1]: considerable stability up to 60 °C; also recorded: higher stability up to 60 °C
antibacterial activity (in words) [2]: active
Pdi Values (polydispersity index) ([3]; DLS): 0.628
Z-Average ([3]; DLS, room temperature): 63.25 nm·days
Zeta Potential ([3]; zetasizer): −34.1 mV
serum stability (in words) [4]: good serum stability
IC50 (human cancer cells): 18.1 ± 6.68 µM
IC50 [5]: 37.2 ± 2.88 µM
antibacterial activity (in words) (H. pylori): active
IC50 (liver cancer cells HepG2): 31.6 ± 1.56 µM
IC50 [6]: 14.8 ± 7.35 µM
IC50 [7]: 13 ± 1.99 µM
IC50 [8]: 15.1 ± 8.51 µM
IC50 (lung cancer cells A549): 14.5 ± 1.44 µM
IC50 [9]: 22.4 ± 6.07 µM
IC50 (skin cancer cells MNT-1): 15.2 ± 0.8 µM
minimal inhibitory concentration (MIC) ([10]; DSM 2570): 25 µM (≈ 34.9 µg/mL)
minimal inhibitory concentration (MIC) ([10]; E. faecalis (DSM 2570), 18–24 h, micro-aerobic): 25 µM (≈ 34.9 µg/mL)
minimal inhibitory concentration (MIC) ([11]; ATCC 6633): 3.12 µM (≈ 4.35 µg/mL)
minimal inhibitory concentration (MIC) ([11]; B. subtilis (ATCC 6633), 18–24 h, aerobic): 3.12 µM (≈ 4.35 µg/mL)
minimal inhibitory concentration (MIC) ([12]; DSM 30054): >100 µM
minimal inhibitory concentration (MIC) ([12]; E. cloacae (DSM 30054), 18–24 h, aerobic): > 100 µM
minimal inhibitory concentration (MIC) [13]: >100 µM
minimal inhibitory concentration (MIC) ([14]; ATCC 6538): 3.12 µM (≈ 4.35 µg/mL)
minimal inhibitory concentration (MIC) ([14]; S. aureus (ATCC 6538), 18–24 h, aerobic): 3.12 µM (≈ 4.35 µg/mL)
minimal inhibitory concentration (MIC) ([15]; A. baumannii (DSM 30007), 18–24 h, aerobic): 12.5 µM (≈ 17.4 µg/mL)
minimal inhibitory concentration (MIC) ([15]; DSM 30007): 12.5 µM (≈ 17.4 µg/mL)
minimal inhibitory concentration (MIC) ([16]; ATCC 43504): 3.12 µM (≈ 4.35 µg/mL)
minimal inhibitory concentration (MIC) ([16]; H. pylori (ATCC 43504), 18–24 h, micro-aerobic): 3.12 µM (≈ 4.35 µg/mL)
minimal inhibitory concentration (MIC) ([17]; ATCC 8739): 100 µM (≈ 139 µg/mL)
minimal inhibitory concentration (MIC) ([17]; E. coli (ATCC 8739), 18–24 h, aerobic): 100 µM (≈ 139 µg/mL)
minimal inhibitory concentration (MIC) ([18]; DSM 26371): 100 µM (≈ 139 µg/mL)
minimal inhibitory concentration (MIC) ([18]; K. pneumoniae (DSM 26371), 18–24 h): 100 µM (≈ 139 µg/mL)
minimal inhibitory concentration (MIC) ([19]; ATCC 9027): >100 µM
minimal inhibitory concentration (MIC) ([19]; P. aeruginosa (ATCC 9027), 18–24 h, aerobic): > 100 µM
hemolysis at 100 µM (Hemolysis assay): 102 ± 6.18%
hemolytic activity (in words) (human red blood cells): high hemolytic activity
estimated HC50 (concentration causing 50% of hemolysis) (human red blood cells; red cells of human, 1 h): 43.66 ± 1.01 µM
stability at different pH [20]: significantly stable at pH values up to 10 and unstable at high pH values of 12 and 14
